Test results as given in US9828339B2, “Biphenyl derivatives and methods for preparing same” (DONG-A ST CO., LTD, priority 2013, dated 2017).

Columns and labels:
[1] = target: T1, human muscarinic M3 receptor (Homo sapiens (Human), UniProt P20309); assay: Antagonism assay on human muscarinic M3 receptor (carbachol-induced intracellular calcium, FLIPR Calcium 5, transfected Cos-7 cells); assay type: cell-based; details: functional inhibitory constant; carbachol-induced intracellular calcium in Cos-7 cells transfected with human M3 receptor
Protocol: [Experimental Example 2] Antagonism Assay on Human Muscarinic M3 Receptor
The antagonism assay for various compounds of the present invention was conducted on antagonism to human M3 receptor in Cos-7 cells that was transfected with plasmid coding human muscarinic M3 receptor. Test compounds in various concentrations were pre-treated to the cells for 3 minutes, and then the changes of intracellular calcium were measured after treating the same with carbachol (i.e. muscarinic receptor agonist). The FLIPR® Calcium 5 assay (Molecular Devices) and Flex3 device (Molecular Devices) were used to measure concentration of calcium. Amounts of calcium before and after carbachol treatment were set as 0% and 100% respectively. Inhibition rates (%) by the compounds for increase in intracellular calcium by carbachol were calculated. The antagonistic potency of the test compounds on human muscarinic M3 receptor was calculated as the functional inhibitory constant (Ki), which can be calculated from concentration (IC50) of compound inhibiting 50% of activity of carbachol according to Cheng and Prusoff equation.

[2] = target: T1, human muscarinic M3 receptor; assay: Binding assay on human muscarinic M3 receptor ([3H]-methyl scopolamine displacement); details: membranes overexpressing human M3 receptor, Ki from IC50 by Cheng-Prusoff, read-out: Binding Affinity to M3 Receptor, Ki
Summary of the method: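 Displacement of [3H]-methyl scopolamine from membranes overexpressing human M3, in Tris-HCl, 25 °C, 120 min; filter-bound radioactivity counted. Nonspecific binding with 5 μM atropine; Ki from IC50 via Cheng-Prusoff.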

T1 sequence (P20309 whole entry): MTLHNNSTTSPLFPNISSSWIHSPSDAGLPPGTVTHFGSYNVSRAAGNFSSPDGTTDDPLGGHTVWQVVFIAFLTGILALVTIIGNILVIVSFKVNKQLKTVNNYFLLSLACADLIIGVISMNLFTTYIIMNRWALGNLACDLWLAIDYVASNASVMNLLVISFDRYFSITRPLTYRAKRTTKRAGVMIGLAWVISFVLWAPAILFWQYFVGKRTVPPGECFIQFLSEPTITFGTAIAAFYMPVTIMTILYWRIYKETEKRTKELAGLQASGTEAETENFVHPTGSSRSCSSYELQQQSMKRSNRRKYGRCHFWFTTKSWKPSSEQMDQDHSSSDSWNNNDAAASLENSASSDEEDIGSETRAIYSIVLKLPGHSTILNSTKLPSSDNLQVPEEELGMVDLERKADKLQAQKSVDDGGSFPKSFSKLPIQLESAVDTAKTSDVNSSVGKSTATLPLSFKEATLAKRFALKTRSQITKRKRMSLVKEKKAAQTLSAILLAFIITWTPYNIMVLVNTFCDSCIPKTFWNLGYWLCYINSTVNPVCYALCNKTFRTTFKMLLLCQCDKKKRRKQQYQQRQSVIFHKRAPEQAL

Ki [1]	Ki [2]	SMILES
0.49 nM	2.25 nM	CN1CCCC1CCOC(=O)Nc1ccc(F)cc1-c1ccccc1 (centres unmarked) [Example 21, 2-(1-methylpyrrolidin-2-yl)ethyl(5-fluoro-[1,1′-biphenyl]-2-yl)carbamate]
1.19 nM	9.21 nM	CN1CCCC1CCOC(=O)Nc1ccc(F)cc1-c1ccc(F)c(F)c1 (centres unmarked) [Example 42, 2-(1-methylpyrrolidin-2-yl)ethyl(3′,4′,5-trifluoro-[1,1′-biphenyl]-2-yl)carbamate]
4.7 nM	26.3 nM	CN1CCCC1CCOC(=O)Nc1ccc(F)cc1-c1ccc(O)c(Cl)c1 (centres unmarked) [Example 58, 2-(1-methylpyrrolidin-2-yl)ethyl(3′-chloro-5-fluoro-4′-hydroxy-[1,1′-biphenyl]-2-yl)carbamate]
11.9 nM	16.3 nM	CN1CCCC1CCOC(=O)Nc1ccc(Cl)cc1-c1cccc(F)c1 (centres unmarked) [Example 67, 2-(1-Methylpyrrolidin-2-yl)ethyl(5-chloro-3′-fluoro-[1,1′-biphenyl]-2-yl)carbamate]
–	63.5 nM	CN1CCCC1CCOC(=O)Nc1ccccc1-c1cccc(F)c1F (centres unmarked) [Example 184, 2-(1-Methylpyrrolidin-2-yl)ethyl(2′,3′-difluoro-[1,1′-biphenyl]-2-yl)carbamate]
–	46.1 nM	CN1CCCC1CCOC(=O)Nc1ccccc1-c1c(F)cccc1F (centres unmarked) [Example 185, 2-(1-Methylpyrrolidin-2-yl)ethyl(2′,6′-difluoro-[1,1′-biphenyl]-2-yl)carbamate]
–	65.6 nM	CN1CCC[C@H]1COC(=O)Nc1ccccc1-c1cccc(F)c1F [Example 189, (S)-(1-methylpyrrolidin-2-yl)methyl(2′,3′-difluoro-[1,1′-biphenyl]-2-yl)carbamate]
–	30.8 nM	Cc1cc(C)cc(-c2ccccc2NC(=O)OC[C@@H]2CCN(C)C2)c1 [Example 191, (R)-(1-methylpyrrolidin-3-yl)-methyl (3′,5′-dimethyl-[1,1′-biphenyl]-2-yl)carbamate]
–	45.8 nM	Cc1cc(C)cc(-c2cc(F)ccc2NC(=O)OC[C@@H]2CCN(C)C2)c1 [Example 193, (R)-(1-methylpyrrolidin-3-yl)methyl(5-fluoro-3′,5′-dimethyl-[1,1′-biphenyl]-2-yl)carbamate]
–	2.03 nM	CN1CCC[C@H]1COC(=O)Nc1ccc(F)cc1-c1ccccc1 [Example 200, (S)-(1-methylpyrrolidin-2-yl)methyl(5-fluoro-[1,1′-biphenyl]-2-yl)carbamate]
–	7.32 nM	Cc1ccc(NC(=O)OC[C@@H]2CCCN2C)c(-c2ccccc2)c1 [Example 206, (S)-(1-methylpyrrolidin-2-yl)methyl(5-methyl-[1,1′-biphenyl]-2-yl)carbamate]
–	110 nM	Cc1cc(C)cc(-c2cc(F)ccc2NC(=O)OC[C@@H]2CCCN2C)c1 [Example 208, (S)-(1-methylpyrrolidin-2-yl)-methyl(5-fluoro-3′,5′-dimethyl-[1,1′-biphenyl]-2-yl)-carbamate]
–	4.6 nM	CN1CCC[C@H]1COC(=O)Nc1ccc(F)cc1-c1cc(F)cc(Cl)c1 [Example 210, (S)-(1-methylpyrrolidin-2-yl)methyl(3′-chloro-5,5′-difluoro-[1,1′-biphenyl]-2-yl)carbamate]
–	53 nM	CN1CCC[C@H]1COC(=O)Nc1ccc(F)cc1-c1cccc(N)c1 [Example 213, (S)-(1-methylpyrrolidin-2-yl)methyl (3′-amino-5-fluoro-[1,1′-biphenyl]-2-yl)carbamate]
–	60.1 nM	CN1CCC[C@H]1COC(=O)Nc1ccc(F)cc1-c1cc(O)cc(Cl)c1 [Example 216, (S)-(1-methylpyrrolidin-2-yl)methyl(3′-chloro-5-fluoro-5′-hydroxy-[1,1′-biphenyl]-2-yl)carbamate]
–	223 nM	COc1cc(Cl)cc(-c2cc(F)ccc2NC(=O)OC[C@@H]2CCCN2C)c1 [Example 217, (S)-(1-methylpyrrolidin-2-yl)methyl (3′-chloro-5-fluoro-5′-methoxy-[1,1′-biphenyl]-2-yl)carbamate]
–	> 1000 nM	COc1cc(OC)cc(-c2cc(F)ccc2NC(=O)OC[C@@H]2CCCN2C)c1 [Example 221, (S)-(1-methylpyrrolidin-2-yl)methyl(5-fluoro-3′,5′-dimethoxy-[1,1′-biphenyl]-2-yl)carbamate]
–	28.3 nM	COc1ccc(NC(=O)OC[C@@H]2CCCN2C)c(-c2ccccc2)c1 [Example 222, (S)-(1-methylpyrrolidin-2-yl)methyl(5-methoxy-[1,1′-biphenyl]-2-yl)carbamate]
–	121 nM	COc1ccc(NC(=O)OC[C@@H]2CCCN2C)c(-c2cccc(F)c2)c1 [Example 223, (S)-(1-methylpyrrolidin-2-yl)methyl(3′-fluoro-5-methoxy-[1,1′-biphenyl]-2-yl)carbamate]
–	53.6 nM	COc1ccc(NC(=O)OC[C@@H]2CCCN2C)c(-c2ccc(Cl)c(Cl)c2)c1 [Example 225, (S)-(1-methylpyrrolidin-2-yl)methyl (3′,4′-dichloro-5-methoxy-[1,1′-biphenyl]-2-yl)carbamate]

SMILES	Ki [1]	Ki [2]
CN1CCCC1CCOC(=O)Nc1ccccc1-c1ccc(F)c(Cl)c1 (centres unmarked) [Example 41, 2-(1-methylpyrrolidin-2-yl)ethyl(3′-chloro-4′-fluoro-[1,1′-biphenyl]-2-yl)carbamate]	0.18 nM	2.45 nM
CN1CCCC1CCOC(=O)Nc1ccc(F)cc1-c1cc(Cl)c(F)c(Cl)c1 (centres unmarked) [Example 56, 2-(1-methylpyrrolidin-2-yl)ethyl(3′,5′-dichloro-4′,5-difluoro-[1,1′-biphenyl]-2-yl)carbamate]	10 nM	12.5 nM
CN1CCC[C@H]1COC(=O)Nc1ccc(F)cc1-c1ccc(C(C)(C)C)cc1 [Example 209, (S)-(1-methylpyrrolidin-2-yl)methyl (4′-(tert-butyl)-5-fluoro-[1,1′-biphenyl]-2-yl)carbamate]	–	> 1000 nM
CN1CCC[C@H]1COC(=O)Nc1ccc(F)cc1-c1ccc(Cl)c(F)c1 [Example 212, (S)-(1-methylpyrrolidin-2-yl)methyl(4′-chloro-3′,5-difluoro-[1,1′-biphenyl]-2-yl)carbamate]	–	> 1000 nM
CN1CCC[C@H]1COC(=O)Nc1ccc(F)cc1-c1cccc(C(F)(F)F)c1F [Example 214, (S)-(1-methylpyrrolidin-2-yl)methyl(2′,5-difluoro-3′-(trifluoromethyl)-[1,1′-biphenyl]-2-yl)carbamate]	–	> 1000 nM
CN1CCC[C@H]1COC(=O)Nc1ccc(F)cc1-c1cc(Cl)cc(C(F)(F)F)c1 [Example 215, (S)-(1-methylpyrrolidin-2-yl)methyl(3′-chloro-5-fluoro-5′-(trifluoromethyl)-[1,1′-biphenyl]-2-yl)carbamate]	–	> 1000 nM
CN1CCC[C@H]1COC(=O)Nc1ccc(F)cc1-c1ccc(C(F)(F)F)cc1C(F)(F)F [Example 218, (S)-(1-methylpyrrolidin-2-yl)methyl(5-fluoro-2′,4′-bis(trifluoromethyl)-[1,1′-biphenyl]-2-yl)carbamate]	–	> 1000 nM
CCOc1cccc(-c2cc(F)ccc2NC(=O)OC[C@@H]2CCCN2C)c1 [Example 219, (S)-(1-methylpyrrolidin-2-yl)methyl(3′-ethoxy-5-fluoro-[1,1′-biphenyl]-2-yl)carbamate]	–	> 1000 nM
COc1ccc(-c2cc(F)ccc2NC(=O)OC[C@@H]2CCCN2C)cc1OC [Example 220, (S)-(1-methylpyrrolidin-2-yl)methyl (5-fluoro-3′,4′-dimethoxy-[1,1′-biphenyl]-2-yl)carbamate]	–	> 1000 nM
